Data: ChEMBL document CHEMBL3352415, “Synthesis and biological evaluation of novel thiadiazole amides as potent Cdc25B and PTP1B inhibitors” (Bioorg Med Chem Lett, 2014)

Assays:
[1] = target: T1, M-phase inducer phosphatase 2 (Homo sapiens, UniProt P30305); test: Inhibition of Cdc25B (unknown origin)
T1 sequence (P30305 whole entry): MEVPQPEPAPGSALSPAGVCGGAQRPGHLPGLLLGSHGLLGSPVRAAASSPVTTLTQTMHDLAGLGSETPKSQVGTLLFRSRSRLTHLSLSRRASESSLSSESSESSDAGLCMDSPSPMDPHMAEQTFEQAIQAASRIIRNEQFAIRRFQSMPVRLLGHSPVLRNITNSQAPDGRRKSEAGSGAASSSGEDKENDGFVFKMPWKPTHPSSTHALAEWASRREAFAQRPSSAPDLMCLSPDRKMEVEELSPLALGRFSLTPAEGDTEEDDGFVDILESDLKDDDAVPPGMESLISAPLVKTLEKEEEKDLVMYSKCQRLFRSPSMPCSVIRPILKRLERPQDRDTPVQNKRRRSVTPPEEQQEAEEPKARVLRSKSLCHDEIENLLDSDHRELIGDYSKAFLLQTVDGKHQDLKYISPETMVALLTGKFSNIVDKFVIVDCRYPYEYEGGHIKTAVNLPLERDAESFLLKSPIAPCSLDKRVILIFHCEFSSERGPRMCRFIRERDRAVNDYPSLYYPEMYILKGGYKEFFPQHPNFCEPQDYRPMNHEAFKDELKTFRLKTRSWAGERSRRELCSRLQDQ

[2] = target: T2, Tyrosine-protein phosphatase non-receptor type 1 (Homo sapiens) (UniProt P18031); test: Inhibition of PTP1B (unknown origin) at 5 ug/ml
T2 sequence (whole entry): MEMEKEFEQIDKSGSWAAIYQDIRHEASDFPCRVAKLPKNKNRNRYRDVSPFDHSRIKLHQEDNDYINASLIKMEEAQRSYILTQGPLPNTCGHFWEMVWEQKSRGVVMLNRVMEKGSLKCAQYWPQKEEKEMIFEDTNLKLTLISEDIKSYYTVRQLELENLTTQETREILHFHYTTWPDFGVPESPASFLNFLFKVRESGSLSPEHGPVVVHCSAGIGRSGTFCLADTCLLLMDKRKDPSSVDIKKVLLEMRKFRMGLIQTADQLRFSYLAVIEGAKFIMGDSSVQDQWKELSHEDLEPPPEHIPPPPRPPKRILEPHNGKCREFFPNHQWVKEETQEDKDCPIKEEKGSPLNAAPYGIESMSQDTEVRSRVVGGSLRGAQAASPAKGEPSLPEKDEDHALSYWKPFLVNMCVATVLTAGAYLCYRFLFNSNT

[3] = target: Tyrosine-protein phosphatase non-receptor type 6 (Homo sapiens, UniProt P29350); test: Inhibition of SHP1 (unknown origin)
Tyrosine-protein phosphatase non-receptor type 6, sequence (P29350 whole entry): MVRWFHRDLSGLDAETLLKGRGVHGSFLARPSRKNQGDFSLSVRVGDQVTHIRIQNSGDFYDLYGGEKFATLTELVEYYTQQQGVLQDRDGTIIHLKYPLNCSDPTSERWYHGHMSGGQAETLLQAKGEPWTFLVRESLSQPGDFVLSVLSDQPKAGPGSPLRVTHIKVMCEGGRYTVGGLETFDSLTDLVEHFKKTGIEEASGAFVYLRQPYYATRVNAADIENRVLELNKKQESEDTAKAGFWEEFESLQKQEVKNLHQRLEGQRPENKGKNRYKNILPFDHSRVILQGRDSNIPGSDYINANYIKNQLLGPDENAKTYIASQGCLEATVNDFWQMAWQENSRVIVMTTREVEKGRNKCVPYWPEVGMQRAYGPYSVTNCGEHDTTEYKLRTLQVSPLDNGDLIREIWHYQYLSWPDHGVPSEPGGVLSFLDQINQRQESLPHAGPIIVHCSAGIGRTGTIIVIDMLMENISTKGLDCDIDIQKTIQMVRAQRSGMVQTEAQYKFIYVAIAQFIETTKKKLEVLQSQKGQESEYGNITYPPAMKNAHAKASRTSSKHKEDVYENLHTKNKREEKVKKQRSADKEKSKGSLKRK

[4] = target: T3, Tyrosine-protein phosphatase non-receptor type 1 (Homo sapiens, UniProt P18031); test: Inhibition of PTP1B (unknown origin)
T3 sequence (P18031 whole entry): T2 sequence (whole entry)

[5] = target: T4, Tyrosine-protein phosphatase non-receptor type 2 (Homo sapiens, UniProt P17706); test: Inhibition of TCPTP (unknown origin)
T4 sequence (P17706 whole entry): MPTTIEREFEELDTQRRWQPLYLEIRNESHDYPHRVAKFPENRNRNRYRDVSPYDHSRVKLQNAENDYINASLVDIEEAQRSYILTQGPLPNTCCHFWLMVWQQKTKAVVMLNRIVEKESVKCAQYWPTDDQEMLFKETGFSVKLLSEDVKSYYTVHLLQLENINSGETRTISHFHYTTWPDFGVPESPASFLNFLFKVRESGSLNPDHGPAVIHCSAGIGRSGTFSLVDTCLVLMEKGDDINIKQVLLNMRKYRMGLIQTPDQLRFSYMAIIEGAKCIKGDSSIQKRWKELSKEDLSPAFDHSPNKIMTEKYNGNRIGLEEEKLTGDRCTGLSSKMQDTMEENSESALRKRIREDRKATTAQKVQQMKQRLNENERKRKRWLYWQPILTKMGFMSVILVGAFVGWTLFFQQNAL

[6] = target: T5, M-phase inducer phosphatase 2 (Homo sapiens) (UniProt P30305); test: Inhibition of Cdc25B (unknown origin) at 5 ug/ml
T5 sequence (whole entry): T1 sequence (P30305 whole entry)

[7] = target: Receptor-type tyrosine-protein phosphatase F (Homo sapiens, UniProt P10586); test: Inhibition of LAR (unknown origin)
Receptor-type tyrosine-protein phosphatase F, sequence (P10586 whole entry): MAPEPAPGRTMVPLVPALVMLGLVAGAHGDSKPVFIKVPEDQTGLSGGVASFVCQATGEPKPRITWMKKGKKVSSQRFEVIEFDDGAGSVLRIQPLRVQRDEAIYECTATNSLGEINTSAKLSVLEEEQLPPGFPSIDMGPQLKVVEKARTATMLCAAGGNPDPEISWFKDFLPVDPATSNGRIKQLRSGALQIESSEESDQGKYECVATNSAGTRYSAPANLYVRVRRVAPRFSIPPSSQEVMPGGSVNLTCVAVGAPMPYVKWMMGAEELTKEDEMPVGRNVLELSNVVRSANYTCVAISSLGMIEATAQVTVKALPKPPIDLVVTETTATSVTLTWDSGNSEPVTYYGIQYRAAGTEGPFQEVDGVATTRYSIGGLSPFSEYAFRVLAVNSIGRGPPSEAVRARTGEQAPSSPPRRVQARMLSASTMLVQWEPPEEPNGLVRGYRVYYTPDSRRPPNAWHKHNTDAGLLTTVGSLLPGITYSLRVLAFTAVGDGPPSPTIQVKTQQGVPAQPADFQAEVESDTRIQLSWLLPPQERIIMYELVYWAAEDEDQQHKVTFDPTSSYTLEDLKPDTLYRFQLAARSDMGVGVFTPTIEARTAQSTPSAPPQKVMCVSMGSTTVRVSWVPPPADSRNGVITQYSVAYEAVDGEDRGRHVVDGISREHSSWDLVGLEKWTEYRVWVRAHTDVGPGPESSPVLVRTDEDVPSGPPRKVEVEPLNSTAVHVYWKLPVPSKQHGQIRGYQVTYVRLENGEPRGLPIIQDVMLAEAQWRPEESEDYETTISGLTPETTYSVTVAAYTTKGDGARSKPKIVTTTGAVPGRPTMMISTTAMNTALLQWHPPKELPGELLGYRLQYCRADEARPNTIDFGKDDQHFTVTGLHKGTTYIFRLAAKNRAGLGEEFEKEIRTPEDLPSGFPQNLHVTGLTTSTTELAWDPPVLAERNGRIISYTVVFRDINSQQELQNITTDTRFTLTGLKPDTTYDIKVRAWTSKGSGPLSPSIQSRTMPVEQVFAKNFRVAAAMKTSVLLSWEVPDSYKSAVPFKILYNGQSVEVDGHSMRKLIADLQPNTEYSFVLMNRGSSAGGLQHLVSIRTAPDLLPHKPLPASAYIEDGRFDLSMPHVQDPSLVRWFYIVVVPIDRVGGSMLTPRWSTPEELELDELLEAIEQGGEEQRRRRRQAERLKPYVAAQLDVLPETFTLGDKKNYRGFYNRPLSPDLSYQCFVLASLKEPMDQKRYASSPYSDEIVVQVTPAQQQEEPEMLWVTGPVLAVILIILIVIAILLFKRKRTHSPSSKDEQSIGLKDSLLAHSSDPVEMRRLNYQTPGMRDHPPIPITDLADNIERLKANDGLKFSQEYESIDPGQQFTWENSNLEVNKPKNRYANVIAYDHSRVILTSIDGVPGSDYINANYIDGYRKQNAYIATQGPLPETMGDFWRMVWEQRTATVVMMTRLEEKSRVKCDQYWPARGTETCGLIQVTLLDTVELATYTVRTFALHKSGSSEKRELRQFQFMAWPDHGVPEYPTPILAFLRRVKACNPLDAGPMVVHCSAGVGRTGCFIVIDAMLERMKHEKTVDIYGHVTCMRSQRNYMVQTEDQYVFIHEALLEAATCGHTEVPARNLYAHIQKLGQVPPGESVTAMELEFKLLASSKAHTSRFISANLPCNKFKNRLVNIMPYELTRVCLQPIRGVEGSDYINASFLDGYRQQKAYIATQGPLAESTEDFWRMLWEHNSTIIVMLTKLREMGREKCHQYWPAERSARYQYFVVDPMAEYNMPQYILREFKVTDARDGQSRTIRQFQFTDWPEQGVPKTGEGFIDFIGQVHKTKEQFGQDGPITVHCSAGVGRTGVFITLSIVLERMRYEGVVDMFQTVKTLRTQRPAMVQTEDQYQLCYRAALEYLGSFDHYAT

[8] = target: T6, Tyrosine-protein phosphatase non-receptor type 11 (Homo sapiens, UniProt Q06124); test: Inhibition of SHP2 (unknown origin)
T6 sequence (Q06124 whole entry): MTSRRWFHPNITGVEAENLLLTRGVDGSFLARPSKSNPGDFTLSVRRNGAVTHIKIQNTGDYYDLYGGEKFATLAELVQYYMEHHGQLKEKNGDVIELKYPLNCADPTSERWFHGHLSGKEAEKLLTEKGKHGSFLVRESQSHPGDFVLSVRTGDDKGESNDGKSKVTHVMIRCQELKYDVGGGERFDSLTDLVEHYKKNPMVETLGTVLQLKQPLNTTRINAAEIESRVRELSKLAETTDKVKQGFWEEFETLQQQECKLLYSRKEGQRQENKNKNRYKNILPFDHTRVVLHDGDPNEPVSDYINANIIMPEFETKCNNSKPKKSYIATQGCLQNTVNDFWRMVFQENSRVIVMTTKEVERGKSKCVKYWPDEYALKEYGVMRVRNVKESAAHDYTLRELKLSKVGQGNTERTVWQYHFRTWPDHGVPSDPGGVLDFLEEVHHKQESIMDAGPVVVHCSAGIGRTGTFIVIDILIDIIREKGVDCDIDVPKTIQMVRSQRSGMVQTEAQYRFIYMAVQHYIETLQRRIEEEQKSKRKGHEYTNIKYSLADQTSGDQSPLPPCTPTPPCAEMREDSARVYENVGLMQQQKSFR

Row | Compound | IC50 [1] [µM] | inhibition [2] [%] | IC50 [3] | IC50 [4] [µM] | IC50 [5] | inhibition [6] [%] | IC50 [7] | IC50 [8]
1 | O=C(Nc1nnc(-c2ccc(Oc3ccc([N+](=O)[O-])cc3[N+](=O)[O-])cc2)s1)c1ccccc1F | 5.42 | 88.4 | Not Active | 3.51 | Not Active | 99.3 | Not Active | Not Active
2 | O=C(Nc1nnc(-c2ccc(Oc3ccc([N+](=O)[O-])cc3)cc2)s1)c1cccc(F)c1 | 10.5 | 37.1 | Not Active |  | Not Active | 81.7 | Not Active | Not Active
3 | O=C(Nc1nnc(-c2ccc(Oc3ccc([N+](=O)[O-])cc3)cc2)s1)c1ccc([N+](=O)[O-])cc1 | 8.54 | 95.2 | Not Active | 3.6 | Not Active | 96.4 | Not Active | Not Active
4 | Cc1ccccc1C(=O)Nc1nnc(-c2ccc(Oc3ccc([N+](=O)[O-])cc3[N+](=O)[O-])cc2)s1 | 6.51 | 84 | Not Active | 8.44 | Not Active | 93.7 | Not Active | Not Active
5 | COc1ccccc1C(=O)Nc1nnc(-c2ccc(Oc3ccc([N+](=O)[O-])cc3[N+](=O)[O-])cc2)s1 |  | 91.3 | Not Active | 3.81 | Not Active | 17.5 | Not Active | Not Active
6 | SODIUM ORTHOVANAD |  |  | 15.9 µg/mL |  |  |  |  | 24.1 µg/mL
7 | O=C(Nc1nnc(-c2ccc(Oc3ccc([N+](=O)[O-])cc3)cc2)s1)c1ccccc1Cl |  | 63 | Not Active | 13.8 | Not Active | 46.4 | Not Active | Not Active
8 | O=C(Nc1nnc(-c2ccc(Oc3ccc([N+](=O)[O-])cc3)cc2)s1)c1cccnc1 | 8.01 | 82.4 | Not Active | 10 | Not Active | 97 | Not Active | Not Active
9 | COc1cccc(C(=O)Nc2nnc(-c3ccc(Oc4ccc([N+](=O)[O-])cc4)cc3)s2)c1 |  | 32.1 | Not Active |  | Not Active | 2.52 | Not Active | Not Active
10 | O=C(Nc1nnc(-c2ccc(Oc3ccc([N+](=O)[O-])cc3)cc2)s1)c1ccc(F)cc1 |  | 77.1 | Not Active | 20 | Not Active | 31.7 | Not Active | Not Active
11 | O=C(Nc1nnc(-c2ccc(Oc3ccc([N+](=O)[O-])cc3)cc2)s1)c1ccco1 | 6.44 | 75.1 | Not Active | 11.3 | Not Active | 87.7 | Not Active | Not Active
12 | O=C(Nc1nnc(-c2ccc(Oc3ccc([N+](=O)[O-])cc3)cc2)s1)c1cccc([N+](=O)[O-])c1 |  | 94.6 | Not Active | 1.83 | Not Active | 24.2 | Not Active | Not Active
13 | O=C(Nc1nnc(-c2ccc(Oc3ccc([N+](=O)[O-])cc3[N+](=O)[O-])cc2)s1)c1cccc(Cl)c1 |  | 80.7 | Not Active | 6.71 | Not Active | 37 | Not Active | Not Active
14 | O=C(Nc1nnc(-c2ccc(Oc3ccc([N+](=O)[O-])cc3[N+](=O)[O-])cc2)s1)c1ccccc1[N+](=O)[O-] | 15.8 | 87.4 | Not Active | 8.12 | Not Active | 88.3 | Not Active | Not Active
15 | O=C(Nc1nnc(-c2ccc(Oc3ccc([N+](=O)[O-])cc3)cc2)s1)c1ccccc1F | 10.2 | 60.6 | Not Active | 17.1 | Not Active | 63.6 | Not Active | Not Active
16 | O=C(Cc1ccccc1)Nc1nnc(-c2ccc(Oc3ccc([N+](=O)[O-])cc3)cc2)s1 |  | 54.9 | Not Active | 12.6 | Not Active | 43.6 | Not Active | Not Active
17 | COc1ccc(C(=O)Nc2nnc(-c3ccc(Oc4ccc([N+](=O)[O-])cc4[N+](=O)[O-])cc3)s2)cc1 |  | 92.9 | Not Active | 7.6 | Not Active | 28.9 | Not Active | Not Active
18 | COc1ccccc1C(=O)Nc1nnc(-c2ccc(Oc3ccc([N+](=O)[O-])cc3)cc2)s1 |  | 84.8 | Not Active | 13.1 | Not Active | 26.1 | Not Active | Not Active
19 | Cc1ccc(C(=O)Nc2nnc(-c3ccc(Oc4ccc([N+](=O)[O-])cc4)cc3)s2)cc1 |  | 68.4 | Not Active | 19.1 | Not Active | 25.8 | Not Active | Not Active
20 | O=C(Nc1nnc(-c2ccc(Oc3ccc([N+](=O)[O-])cc3)cc2)s1)c1ccccc1[N+](=O)[O-] |  | 85 | Not Active | 9.17 | Not Active | 13 | Not Active | Not Active
21 | O=C(Nc1nnc(-c2ccc(Oc3ccc([N+](=O)[O-])cc3[N+](=O)[O-])cc2)s1)c1ccc(Cl)cc1 | 4.44 | 42.3 | Not Active |  | Not Active | 90.2 | Not Active | Not Active
